From patent publication US10624887B2, “Compositions of (-)-17-(cyclobutylmethyl)morphinan-3,14,-diol” (priority 2010, dated 2020)
Entries after “also recorded” stand apart in the source; their conditions may differ. Read-outs that look alike come from different tables or passages of the source.

Experiments:
[1] = tested on: vincristine induced painful neuropathy; assay: Vincristine induced painful neuropathy, cold allodynia (acetone drop test); type: in vivo, Wistar rats; settings: vincristine neuropathic rats
Text: (§1) The aim of this study was to evaluate the effect of oral administration of butorphanol in rats with vincristine induced painful neuropathy. The primary measurements were made mechanical and thermal allodynia designed to detect effects of the treatment(s) on neuropathic pain.
(§2) Wistar rats weighing 250±20 g were maintained on standard laboratory diet and having free access to tap water ad lib were employed in the present study. They were housed in the animal house and were exposed to 12 hr cycle of light and dark. The experiments were conducted in a semi-sound proof laboratory. Care of the animals was in accordance with guidelines for experimentation on animals.
The vincristine model was adapted from Authier et al (1999). Rats were injected on five alternate days (day 4, 6, 8, 10 & 12) with vincristine (200 μg/kg i.p.) using an injection volume of 2 ml/kg. Thus, the cumulative dose of vincristine was computed to be 1 mg/kg. Tests took place three days after the last injection and continued over the next three weeks. […]
For the assessment of cold allodynia, which was stable for 3 weeks, the rats were placed on a wire mesh covered with a plastic dome and were allowed to habituate until the exploratory behavior diminished. Cold allodynia was measured as the number of foot withdrawal responses after application of stimuli to the plantar surface of the paw. […] Acetone was applied two times (once every 5 min) on the left paw, and the number of reactions (shaking, tapping, or licking) was counted during 30 sec. […] The score was expressed as accumulated numbers of reactions over the trials and determined before and 30 and 60 min after administration of the test drugs. Each individual test was expressed as a percentage of maximum possible effect (% MPE): […]
MPE (%) at 30 min time point was employed as a quantitative measure of the analgesic effect of the test drugs.
(§3) The anti-nociceptive effect was plotted assessed having time (relative to dosing time point) on the x-axis and percent maximum possible effect (% MPE) on the y-axis. The results were expressed as mean±standard error of means (S.E.M.). […]

[2] = Tail flick test, intra-gastric, intra-ileal and intra-colonic butorphanol; type: in vivo
Text: FIG. 13: Time-effect curves depicting antinociceptive effect of intra-gastric, intra-ileal and intra-colonic butorphanol in the tail flick test. The percent maximum possible effect (% MPE) is plotted versus time.
FIG. 14: Time-effect curves depicting antinociceptive effect of intra-gastric, intra-ileal and intra-colonic butorphanol in the tail flick test. The percent maximum possible effect (% MPE) is plotted versus time.

opioid receptors = settings: cited from earlier work
nociception in rats = assay: Eddy's hot plate test; type: in vivo, Wistar rats; settings: butorphanol 1 mg/kg
Procedure: Heat is often used as a noxious stimulus in models of pain. Typically, the latency of the rat's response to the thermal stimulus is recorded as the dependent variable. To determine whether a test compound has analgesic properties, the latency responses of treated and control rats are evaluated. […] The latency of response will vary depending on the type of heat stimulus used. In the hot-plate assay, the rat is placed on a heated surface and the latency for the rat to respond to the stimulus, by licking its paw or jumping, is recorded. […]
Three groups were employed in the present study with each group comprising of 8 animals. […] Hot plate latency was assessed at 0, 30, 45 and 60 minutes after administration of the butorphanol. Area under the curve was calculated using a graph between % MPE and time. Area under the curve was employed as a quantitative measure of the analgesic effect of the treatments.
Nociceptive threshold was measured with the Eddy's hot plate test. […] Reaction time is expressed as a percentage of the maximum possible effect (MPE): […]
The anti-nociceptive effect following intragastric, intra-ileal and intra-colonic administration was assessed in terms of area under the curve calculated from a graph having time (relative to dosing time point) on the x-axis and percent maximum possible effect (% MPE) on the y-axis. The results were expressed as mean±standard error of means (S.E.M.). […]

[3] = tested on: vincristine induced painful neuropathy; assay: Vincristine induced painful neuropathy, mechanical allodynia (von Frey filaments); type: in vivo, Wistar rats; settings: vincristine neuropathic rats
Text: as §1, §2
The vincristine model was adapted from Authier et al (1999). Rats were injected on five alternate days (day 4, 6, 8, 10 & 12) with vincristine (200 μg/kg i.p.) using an injection volume of 2 ml/kg. […]
Mechano-allodynia was assessed using von Frey filaments. […] Both hind paws were tested for allodynia and the average of the two was recorded as data. Results were expressed in grams and determined before and 30 and 60 min after the administration of the test drugs.
as §3

[4] = cited from earlier work; for duration of analgesic effect (median time to requesting rescue analgesia): acute postsurgical pain

For `Oc1ccc2c(c1)[C@@]13CCCC[C@@]1(O)[C@@H](C2)N(CC1CCC1)CC3` [butorphanol, (−)17-(Cyclobutylmethyl)morphinan-3,14-diol], the cold allodynia score ([1]; oral 1, 3, 10, 30 mg/kg, FIG. 16) was “dose dependent decrease”, the “cold allodynia withdrawal threshold in comparison to the control readings” value ([1]; oral) was “significant increase” and the “time of peak effect post-administration (cold allodynia)” value ([1]; oral) was 30 min. For the same compound, the “antinociceptive effect, position of the % MPE time-effect curve” value ([2]; intra-colonic) was “Top curve”, the “antinociceptive effect, position of the % MPE time-effect curve” value ([2]; intra-gastric) was “bottom curve” and the “antinociceptive effect, position of the % MPE time-effect curve” value ([2]; intra-ileal) was “second from top curve”. For the same compound, the “activity at opioid receptors” value (opioid receptors) was “partial agonist”, the “antinociceptive effect (area under the curve of % MPE vs time), intra-colonic versus intra-gastric or intra-ileal” value (nociception in rats; hot plate, FIG. 14) was “significantly greater antinociceptive effect” and the hot plate latency (nociception in rats; intra-gastric, intra-ileal and intra-colonic administration, each, rats) was “significant increase”. For the same compound, the mechanical withdrawal threshold ([3]; oral 1, 3, 10, 30 mg/kg, FIG. 15) was “dose dependent increase; also recorded: significant increase”, the “time of peak effect post-administration (mechanical allodynia)” value ([3]; oral) was 30 min and the “duration of analgesic effect (median time to requesting rescue analgesia)” value ([4]; 1 mg intranasal dose) was “less than 2 hours”. For the same compound, the “subjects requiring rescue analgesia during the first 6 hours of observation” value ([4]; 1 mg intranasal dose) was “about 90%”, the “duration of analgesic effect (median time to requesting rescue analgesia)” value ([4]; 2 mg intranasal dose) was “less than 2 hours” and the “subjects requiring rescue analgesia during the first 6 hours of observation” value ([4]; 2 mg intranasal dose) was “about 80%”.
